Assay results as given in patent US10722514B2 (FLX Bio, Inc., priority 2017, dated 2020).
Like-named read-outs stand apart in the source and are kept apart here.

Target: T1, recombinant full-length USP7 (Homo sapiens, UniProt Q93009)
T1 construct: A 25 μl reaction volume containing recombinant full-length USP7 (62 pM)
Test: USP7-mediated ubiquitin-rhodamine cleavage assay
Format: biochemical
Settings: recombinant full-length USP7 62 pM, ubiquitin-rhodamine 100 nM, 1 hour reaction at room temperature
How it was run: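 After compound and enzyme (62 pM) sat together 30 min at RT, 100 nM fluorogenic ubiquitin-rhodamine substrate was added for 1 h protected from light. Acetic acid quenched the reaction prior to the fluorescence read.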

[1] = 30-minute incubation with compound, read-out: Potency: USP7 IC50
[2] = 30-minute pre-incubation, read-out: Potency (USP7 IC50)

T1 sequence (Q93009 whole entry): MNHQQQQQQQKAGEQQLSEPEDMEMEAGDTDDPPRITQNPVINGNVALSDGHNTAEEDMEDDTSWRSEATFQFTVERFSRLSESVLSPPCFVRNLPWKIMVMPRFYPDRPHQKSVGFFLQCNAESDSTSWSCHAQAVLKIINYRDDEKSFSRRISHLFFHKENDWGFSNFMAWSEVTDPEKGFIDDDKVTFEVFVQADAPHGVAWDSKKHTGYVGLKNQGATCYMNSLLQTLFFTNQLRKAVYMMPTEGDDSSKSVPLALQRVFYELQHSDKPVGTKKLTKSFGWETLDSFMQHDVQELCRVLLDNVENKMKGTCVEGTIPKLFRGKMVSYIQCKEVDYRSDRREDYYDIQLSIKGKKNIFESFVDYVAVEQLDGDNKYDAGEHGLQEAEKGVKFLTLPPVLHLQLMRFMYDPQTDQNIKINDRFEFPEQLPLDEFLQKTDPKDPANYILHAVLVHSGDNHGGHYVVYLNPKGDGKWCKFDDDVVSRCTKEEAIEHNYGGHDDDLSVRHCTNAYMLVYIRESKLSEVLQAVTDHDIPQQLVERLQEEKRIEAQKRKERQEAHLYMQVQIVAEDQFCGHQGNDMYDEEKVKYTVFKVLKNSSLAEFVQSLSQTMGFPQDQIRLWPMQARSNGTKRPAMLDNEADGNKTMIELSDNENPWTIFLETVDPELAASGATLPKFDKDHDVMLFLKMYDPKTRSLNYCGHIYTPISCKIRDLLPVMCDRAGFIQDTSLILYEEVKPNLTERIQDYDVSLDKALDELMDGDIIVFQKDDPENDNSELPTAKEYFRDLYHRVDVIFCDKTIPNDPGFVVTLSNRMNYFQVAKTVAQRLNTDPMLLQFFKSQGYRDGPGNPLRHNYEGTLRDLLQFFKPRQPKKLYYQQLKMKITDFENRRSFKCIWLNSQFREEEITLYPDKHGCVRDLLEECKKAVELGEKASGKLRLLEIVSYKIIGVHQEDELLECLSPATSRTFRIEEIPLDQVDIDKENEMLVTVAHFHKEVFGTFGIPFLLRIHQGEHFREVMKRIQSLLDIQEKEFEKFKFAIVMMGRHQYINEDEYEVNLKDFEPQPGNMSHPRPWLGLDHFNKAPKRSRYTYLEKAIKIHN

Structure (SMILES) | IC50 [1] [nM] | IC50 [2] [nM] | also measured
Cc1cc(Cl)cc(-c2ccnc3cc(CO)sc23)c1OC1CC2CNC1C2 (centres unmarked) [Example 165, (7-(2-((2-Azabicyclo[2.2.1]heptan-6-yl)oxy)-5-chloro-3-methylphenyl)thieno[3,2-b]pyridin-2-yl)methanol] | 1000 to 10000 | – | –
Cc1cc(Cl)cc(-c2ccnc3cc(Cn4cnc5ccccc5c4=O)sc23)c1O[C@H]1CCCNC1 [Example 385, 3-[[7-[5-chloro-3-methyl-2-[[(3S)-3-piperidyl]oxy]phenyl]thieno[3,2-b]pyridin-2-yl]methyl]quinazolin-4-one; 2,2,2-trifluoroacetic acid] | 1000 to 10000 | – | –
CCC(O)c1cc2nccc(-c3cc(Cl)cc(C)c3OCC3(C)CNC3)c2s1 (centres unmarked) [Example 33, 1-(7-(5-Chloro-3-methyl-2-((3-methylazetidin-3-yl)methoxy)phenyl)thieno[3,2-b]pyridin-2-yl)propan-1-ol] | 1000 to 10000 | – | –
Cc1cc(Cl)cc(-c2ccnc3cc(CNS(C)(=O)=O)sc23)c1O[C@@H]1CNC[C@@H]1F [Example 107, N-((7-(5-Chloro-2-(((3R,4S)-4-fluoropyrrolidin-3-yl)oxy)-3-methylphenyl)thieno[3,2-b]pyridin-2-yl)methyl)methanesulfonamide] | 1000 to 10000 | – | –
Cc1cc(Cl)cc(-c2ccnc3cc(Cn4c(=O)ccn(CC(F)(F)F)c4=O)sc23)c1OC1CC(N2C[C@@H]3C[C@H]2CO3)C1 (stereo partly drawn) [Example 675, 3-[[7-[5-chloro-3-methyl-2-[3-[(1S,4S)-2-oxa-5-azabicyclo[2.2.1]heptan-5-yl]cyclobutoxy]phenyl]thieno[3,2-b]pyridin-2-yl]methyl]-1-(2,2,2-trifluoroethyl)pyrimidine-2,4-dione] | – | – | IC50 (30-minute incubation, read-out: Potency (USP7 IC50)): < 1000 nM
CCN1C[C@H]2C[C@@H]1[C@H](Oc1c(C)cc(Cl)cc1-c1ccnc3cc(CN4C(=O)C5CC5C4=O)sc13)C2 (stereo partly drawn) [Example 320, 3-[[7-[5-chloro-2-[[(1S,4R,5R)-3-ethyl-3-azabicyclo[2.2.1]heptan-5-yl]oxy]-3-methyl-phenyl]thieno[3,2-b]pyridin-2-yl]methyl]-3-azabicyclo[3.1.0]hexane-2,4-dione] | < 1000 | – | –
CCN1CC[C@@H](Oc2c(C)cc(Cl)cc2-c2ccnc3cc(Cn4c(=O)ccn(C)c4=O)sc23)[C@@H](C)C1 [Example 455, 3-[[7-[5-chloro-2-[[(3S,4R)-1-ethyl-3-methyl-4-piperidyl]oxy]-3-methyl-phenyl]thieno[3,2-b]pyridin-2-yl]methyl]-1-methyl-pyrimidine-2,4-dione] | – | < 1000 | –
Cc1cc(Cl)cc(-c2ccnc3cc(Cn4c(=O)ccn(CC(F)(F)F)c4=O)sc23)c1OCCN1CCCC1 [Example 661, 3-[[7-[5-chloro-3-methyl-2-(2-pyrrolidin-1-ylethoxy)phenyl]thieno[3,2-b]pyridin-2-yl]methyl]-1-(2,2,2-trifluoroethyl)pyrimidine-2,4-dione; 2,2,2-trifluoroacetic acid] | – | < 1000 | –
Cc1cc(Cl)cc(-c2ccnc3cc(Cn4c(=O)ccn(CC(F)(F)F)c4=O)sc23)c1OC1CCNC1(C)C (centres unmarked) [Example 344, 3-[[7-[5-chloro-2-(2,2-dimethylpyrrolidin-3-yl)oxy-3-methyl-phenyl]thieno[3,2-b]pyridin-2-yl]methyl]-1-(2,2,2-trifluoroethyl)pyrimidine-2,4-dione] | < 1000 | – | –
Cc1cc(Cl)cc(-c2ccnc3cc(CN4C(=O)CCC4=O)sc23)c1OC1CCOCC1 [Example 450, 1-[[7-(5-chloro-3-methyl-2-tetrahydropyran-4-yloxy-phenyl)thieno[3,2-b]pyridin-2-yl]methyl]pyrrolidine-2,5-dione] | – | < 1000 | –
Cc1cc(C#N)cc(-c2ccnc3cc(COC4=NS(=O)(=O)CC4)sc23)c1O[C@@H]1CNC[C@@H]1F [Example 115, 3-(2-(((1,1-Dioxido-4,5-dihydroisothiazol-3-yl)oxy)methyl)thieno[3,2-b]pyridin-7-yl)-4-(((3R,4S)-4-fluoropyrrolidin-3-yl)oxy)-5-methylbenzonitrile] | 1000 to 10000 | – | –
CCC(O)c1cc2nccc(-c3cc(C#N)cc(C)c3OCC3(F)CNC3)c2s1 (centres unmarked) [Example 36, 4-((3-Fluoroazetidin-3-yl)methoxy)-3-(2-(1-hydroxypropyl)thieno[3,2-b]pyridin-7-yl)-5-methylbenzonitrile] | 1000 to 10000 | – | –
Cc1cc(Cl)cc(-c2ccnc3cc(CN4C(=O)CCC4=O)sc23)c1OC1CN2CCC1CC2 (centres unmarked) [Example 318, 1-[[7-(5-chloro-3-methyl-2-quinuclidin-3-yloxy-phenyl)thieno[3,2-b]pyridin-2-yl]methyl]pyrrolidine-2,5-dione; 2,2,2-trifluoroacetic acid] | < 1000 | – | –
Cc1cc(Cl)cc(-c2ccnc3cc(CN4C(=O)OC(C)(C)C4=O)sc23)c1O[C@@H]1CNC[C@@H]1F [Example 133, 3-((7-(5-Chloro-2-(((3R,4S)-4-fluoropyrrolidin-3-yl)oxy)-3-methylphenyl)thieno[3,2-b]pyridin-2-yl)methyl)-5,5-dimethyloxazolidine-2,4-dione] | < 1000 | – | –
Cc1cc(Cl)cc(-c2ncnc3cc(Cn4c(=O)ccn(CC(F)(F)F)c4=O)sc23)c1OC1CCNCC1 [Example 527, 3-[[4-[5-chloro-3-methyl-2-(4-piperidyloxy)phenyl]thieno[3,2-d]pyrimidin-6-yl]methyl]-1-(2,2,2-trifluoroethyl)pyrimidine-2,4-dione] | – | < 1000 | –
Cc1cc(Cl)cc(-c2ncnc3cc(Cn4c(=O)ccn(CC(F)(F)F)c4=O)sc23)c1O[C@H]1CC[C@H](C)NC1 [Example 562, 3-[[4-[5-chloro-3-methyl-2-[[(3S,6S)-6-methyl-3-piperidyl]oxy]phenyl]thieno[3,2-d]pyrimidin-6-yl]methyl]-1-(2,2,2-trifluoroethyl)pyrimidine-2,4-dione; 2,2,2-trifluoroacetic acid] | – | < 1000 | –
CCC(O)c1cc2nccc(-c3cc(Cl)cc(C)c3OCC3(F)CNC3)c2s1 (centres unmarked) [Example 35, 1-(7-(5-Chloro-2-((3-fluoroazetidin-3-yl)methoxy)-3-methylphenyl)thieno[3,2-b]pyridin-2-yl)propan-1-ol] | 1000 to 10000 | – | –
Cc1cc(Cl)cc(-c2ccnc3cc(Cn4c(=O)ccn(CC(F)(F)F)c4=O)sc23)c1O[C@@H]1CN[C@@H](C(C)(C)O)C1 [Example 635, 3-[[7-[5-chloro-2-[(3S,5R)-5-(1-hydroxy-1-methyl-ethyl)pyrrolidin-3-yl]oxy-3-methyl-phenyl]thieno[3,2-b]pyridin-2-yl]methyl]-1-(2,2,2-trifluoroethyl)pyrimidine-2,4-dione] | – | < 1000 | –
Cc1cc(Cl)cc(-c2ccnc3cc(Cn4c(=O)ccn(CC(F)(F)F)c4=O)sc23)c1O[C@@H]1CCN(C)C[C@@H]1C [Example 273, 3-((7-(5-Chloro-2-(((3S,4R)-1,3-dimethylpiperidin-4-yl)oxy)-3-methylphenyl)thieno[3,2-b]pyridin-2-yl)methyl)-1-(2,2,2-trifluoroethyl)pyrimidine-2,4(1H,3H)-dione] | < 1000 | – | –
Cc1cc(Cl)cc(-c2ccnc3cc(Cn4c(=O)ccn(C)c4=O)sc23)c1O[C@H]1CC[C@H](N)C1 [Example 522, 3-[[7-[2-[(1S,3S)-3-aminocylcopentoxy]-5-chloro-3-methyl-phenyl]thieno[3,2-b]pyridin-2-yl]methyl]-1-methyl-pyrimidine-2,4-dione; 2,2,2-trifluoroacetic acid] | – | < 1000 | –
